Counter-ions that a name gives are not always drawn.
Biological target: T1, abc isoform of human TMEM16A channel expressed in CHO cells (Homo sapiens, UniProt Q5XXA6, DEL476-501)
T1 construct: expressed in transfected cells; host or cells: CHO cells, doxycycline-inducible expression under Blasticidin/Zeocin selection
T1 sequence (Q5XXA6 with tags, fused parts or gaps isoform Q5XXA6-5 DEL539-564): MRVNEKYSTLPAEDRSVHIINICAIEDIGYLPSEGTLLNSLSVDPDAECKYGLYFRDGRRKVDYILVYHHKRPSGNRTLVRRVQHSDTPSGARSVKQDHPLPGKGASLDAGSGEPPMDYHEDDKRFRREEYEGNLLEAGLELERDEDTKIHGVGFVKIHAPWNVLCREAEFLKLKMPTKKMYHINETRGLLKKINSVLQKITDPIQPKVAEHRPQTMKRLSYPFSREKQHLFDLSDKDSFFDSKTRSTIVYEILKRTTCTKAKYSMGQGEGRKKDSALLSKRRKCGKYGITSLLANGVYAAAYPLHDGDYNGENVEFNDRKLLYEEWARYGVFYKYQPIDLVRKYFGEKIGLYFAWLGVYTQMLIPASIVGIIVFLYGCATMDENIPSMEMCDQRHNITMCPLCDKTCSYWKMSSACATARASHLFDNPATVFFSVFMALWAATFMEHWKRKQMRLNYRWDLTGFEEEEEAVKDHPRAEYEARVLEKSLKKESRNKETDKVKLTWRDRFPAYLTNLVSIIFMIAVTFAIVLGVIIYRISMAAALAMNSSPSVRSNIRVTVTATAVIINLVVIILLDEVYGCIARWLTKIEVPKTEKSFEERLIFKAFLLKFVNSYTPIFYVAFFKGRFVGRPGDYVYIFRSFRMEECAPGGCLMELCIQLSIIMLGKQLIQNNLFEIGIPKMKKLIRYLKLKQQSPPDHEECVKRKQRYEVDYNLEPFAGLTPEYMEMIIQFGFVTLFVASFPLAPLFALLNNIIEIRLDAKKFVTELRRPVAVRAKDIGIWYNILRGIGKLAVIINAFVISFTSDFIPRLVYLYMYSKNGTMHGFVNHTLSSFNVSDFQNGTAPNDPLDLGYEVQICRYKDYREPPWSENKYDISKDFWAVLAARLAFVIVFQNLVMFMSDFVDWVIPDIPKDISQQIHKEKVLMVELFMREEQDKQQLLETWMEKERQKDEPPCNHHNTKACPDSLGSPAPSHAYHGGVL
Test: Automated patch clamping (QPatch) assay to measure TMEM16A activity in whole-cell
Assay type: cell-based
Conditions: for EC50: CHO cells expressing human TMEM16A (abc), whole-cell automated patch clamp, Hill fit, read-out: TMEM16A QPATCH assay EC50 V3 EC50; for Emax: CHO, read-out: TMEM16A QPATCH assay EC50 V3 Assay Window (% TMEM16A max activation)
Outline: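 Whole-cell currents were recorded by planar automated patch clamp from induced CHO cells (doxycycline 1 μg/mL, 18-24 h), using a −70 mV hold, +70 mV step and −90 to +70 mV ramp. Values: Hill-fitted EC50, and activation scaled between vehicle current and reference-potentiator maximum; 0.3% DMSO final.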

[1] = maximum current at highest dose relative to reference potentiator at maximal concentration (upper limit) and vehicle (lower limit)

Row | Compound | EC50 [nM] | Emax [1] [%] | TMEM16A QPATCH assay EC50 V3 Assay Window (% TMEM16A max activation) [1] [%]
1 | CCC(CC)NC(=O)c1cnc(-c2cccc(-c3cc(C(=O)N[C@@H](C)[C@@H]4CCCO4)n[nH]3)c2)o1 (single isomer, unassigned) [3.0 (ii)] | 950 | 79 | 
2 | CCOC(=O)[C@H](Cc1ccccc1)NC(=O)c1cnc(-c2cccc(-c3cc(C(=O)NC(CC)CC)n[nH]3)c2)o1 [Example 1.38, (S)-Ethyl 2-(2-(3-(3-(Pentan-3-Ylcarbamoyl)-1 H-Pyrazol-5-yl)Phenyl)Oxazole-5-Carboxamido)-3-Phenylpropanoate] | 900 | 61 | 
3 | CCC(CC)NC(=O)c1cc(-c2cccc(-c3ncc(C(=O)N[C@H](C)C4CC4)o3)c2)[nH]n1 [Example 1.40, (R)-N-(1-Cyclopropylethyl)-2-(3-(5-(Pentan-3-Ylcarbamoyl)-1H-Pyrazol-3-yl)Phenyl)Oxazole-5-Carboxamide] | 160 | 93 | 
4 | CCC(CC)NC(=O)c1cnc(-c2cccc(-c3cc(C(=O)NC(C4CC4)C4CCCO4)n[nH]3)c2)o1 (single isomer, unassigned) [Example 3.4 (i), 2-(3-(3-((Cyclopropyl(Tetrahydrofuran-2-Yl)Methyl)Carbamoyl)-1H-Pyrazol-5-Yl)Phenyl)-N-(Pentan-3-Yl)Oxazole-5-Carboxamide] | 710 |  | 90
5 | CCOC(=O)[C@@H](NC(=O)c1cnc(-c2cccc(-c3cc(C(=O)NC(CC)CC)n[nH]3)c2)o1)c1ccccc1 [Example 1.36, (S)-Ethyl 2-(2-(3-(3-(Pentan-3-Ylcarbamoyl)-1 H-Pyrazol-5-Yl)Phenyl)Oxazole-5-Carboxamido)-2-Phenylacetate] | 1100 | 102 | 
6 | CCCC(CCC)NC(=O)c1cnc(-c2cccc(-c3cc(C(=O)NC(CC)CC)n[nH]3)c2)o1 [Example 1.35, N-(Heptan-4-Yl)-2-(3-(3-(Pentan-3-Ylcarbamoyl)-1H-Pyrazol-5-yl)Phenyl)Oxazole-5-Carboxamide] | 70 | 90 | 
7 | CCC(CC)NC(=O)c1cc(-c2cccc(-c3ncc(C(=O)NCc4c(F)cccc4F)o3)c2)[nH]n1 [Example 1.43, N-(2,6-Difluorobenzyl)-2-(3-(3-(Pentan-3-Ylcarbamoyl)-1H-Pyrazol-5-yl)Phenyl)Oxazole-5-Carboxamide] | 430 | 70 | 

Continued, values first:

Row | EC50 [nM] | Emax [1] [%] | TMEM16A QPATCH assay EC50 V3 Assay Window (% TMEM16A max activation) [1] [%] | Compound
8 | 140 | 80 |  | CCOC(=O)[C@H](Cc1ccccc1)NC(=O)c1cc(-c2cccc(-c3ncc(C(=O)NC(CC)CC)o3)c2)[nH]n1 [Example 3.66, (S)-Ethyl 2-(5-(3-(5-(Pentan-3-Ylcarbamoylyl-Carbamoyl)Oxazol-2-Yl)Phenyl)-1H-Pyrazole-3-Carboxamido)-3-Phenylpropanoate Trifluoroacetate]
9 | 320 | 103 |  | CCC(CC)NC(=O)c1cnc(-c2cccc(-c3nc(C(=O)NC(CC)CC)n(CCN4Cc5ccccc5C4)n3)c2)o1 [Example 15.7, 2-(3-(1-(2-(Isoindolin-2-Yl)Ethyl)-5-(Pentan-3-Ylcarbamoyl)-1H-1,2,4-Triazol-3-Yl)Phenyl)-N-(Pentan-3-Yl)Oxazole-5-Carboxamide]
10 | 460 | 102 |  | C[C@H](NC(=O)c1cnc(-c2cccc(-c3nc(C(=O)N[C@@H](C)C4CC4)n(CCO)n3)c2)o1)C1CC1 [Example 16.1, N-((S)-1-Cyclopropylethyl)-2-(3-(5-(((S)-1-Cyclopropylethyl)Carbamoyl)-1-(2-Hydroxyethyl)-1H-1,2,4-Triazol-3-Yl)Phenyl)Oxazole-5-Carboxamide]
11 | 190 | 74 |  | CCC(CC)NC(=O)c1cnc(-c2cccc(-c3cc(C(=O)Nc4cccc(OC(C)C)c4)n[nH]3)c2)o1 [Example 3.21, 2-(3-(3-((3-Isopropoxyphenyl)Carbamoyl)-1H-Pyrazol-5-Yl)Phenyl)-N-(Pentan-3-Yl)Oxazole-5-Carboxamide]
12 | 40 | 124 |  | CCC(CC)NC(=O)c1cnc(-c2cccc(-c3cc(C(=O)NCC4CCC4)n[nH]3)c2)o1 [Example 3.5, 2-(3-(3-((Cyclobutylmethyl)Carbamoyl)-1H-Pyrazol-5-Yl)Phenyl)-N-(Pentan-3-Yl)Oxazole-5-Carboxamide]
13 | 90 | 167 |  | COC(=O)[C@@H](NC(=O)c1cnc(-c2cccc(-c3cc(C(=O)NC(C4CC4)C4CC4)n(CCO)n3)c2)o1)C(C)C [Example 4.3, (S)-Methyl 2-(2-(3-(5-((Dicyclopropylmethyl)Carbamoyl)-1-(2-Hydroxyethyl)-1H-Pyrazol-3-Yl)Phenyl)Oxazole-5-Carboxamido)-3-Methylbutanoate]
14 | 140 | 97 |  | CCC(CC)NC(=O)c1cnc(-c2cccc(-c3ncc(C(=O)NC(CC)CC)o3)c2)o1 [Example 18.0, 2,2′-(1,3-Phenylene)Bis(N-(Pentan-3-Yl)Oxazole-5-Carboxamide)]
15 | 450 | 119 |  | C[C@H](NC(=O)c1cc(-c2cccc(-c3ncc(C(=O)N[C@H](C)C4CC4)o3)c2)nn1CC(O)C(F)(F)F)C1CC1 (stereo partly drawn) [Example 8.2, N-((R)-1-Cyclopropylethyl)-2-(3-(5-(((S)-1-Cyclopropylethyl)Carbamoyl)-1-(3,3,3-Trifluoro-2-Hydroxypropyl)-1H-Pyrazol-3-Yl)Phenyl)Oxazole-5-Carboxamide]
16 | 130 | 79 |  | CCC(CC)NC(=O)c1cnc(-c2cccc(-c3cc(C(=O)NCCSC(C)(C)C)n[nH]3)c2)o1 [Example 3.23, 2-(3-(3-((2-(Tert-Butylthio)Ethyl)Carbamoyl)-1H-Pyrazol-5-Yl)Phenyl)-N-(Pentan-3-Yl)Oxazole-5-Carboxamide]
17 | 50 | 112 |  | CCOC(=O)[C@@H](NC(=O)c1cnc(-c2cccc(-c3nnc(C(=O)N[C@@H](C)C4CC4)[nH]3)c2)o1)C(C)C [Example 12.2, (S)-Ethyl 2-(2-(3-(5-(((S)-1-Cyclopropylethyl)Carbamoyl)-4H-1,2,4-Triazol-3-Yl)Phenyl)Oxazole-5-Carboxamido)-3-Methylbutanoate]
18 | 10 | 32 |  | C[C@H](NC(=O)c1cc(-c2cccc(-c3ncc(C(=O)N[C@@H](C)C4CC4)o3)c2)[nH]n1)C1CC1 [Example 2.5, N-((S)-1-Cyclopropylethyl)-2-(3-(3-(((S)-1-Cyclopropylethyl)Carbamoyl)-1H-Pyrazol-5-Yl)Phenyl)Oxazole-5-Carboxamide]
19 | 960 | 70 |  | CCC(CC)NC(=O)c1cnc(-c2cccc(-c3cc(C(=O)N4CCC(C(=O)OC(C)(C)C)C4)n[nH]3)c2)o1 (stereo not shown) [Example 3.62, Tert-Butyl 1-(5-(3-(5-(Pentan-3-Ylcarbamoyl)Oxazol-2-Yl)Phenyl)-1H-Pyrazole-3-Carbonyl)Pyrrolidine-3-Carboxylate Trifluoroacetate]
20 | 940 | 80 |  | C[C@H](NC(=O)c1cnc(-c2cccc(-c3nnc(C(=O)NC4CCC(F)(F)CC4)[nH]3)c2)o1)C1CC1 [Example 13.4, (S)-N-(1-Cyclopropylethyl)-2-(3-(5-((4,4-Difluorocyclohexyl)Carbamoyl)-4H-1,2,4-Triazol-3-Yl)Phenyl)Oxazole-5-Carboxamide]
21 | 50 | 95 |  | CCC(CC)NC(=O)c1nnc(-c2cccc(-c3ncc(C(=O)NC(CC)CC)o3)c2)[nH]1 [Example 13.3, N-(Pentan-3-Yl)-2-(3-(5-(Pentan-3-Ylcarbamoyl)-1 H-1,2,4-Triazol-3-Yl)Phenyl)Oxazole-5-Carboxamide]
22 | 330 | 106 |  | CCC(CC)NC(=O)c1cc(-c2cccc(-c3ncc(C(=O)N[C@@H](C)C4CC4)o3)c2)nn1CCO [Example 4.0, (S)-N-(1-Cyclopropylethyl)-2-(3-(1-(2-Hydroxyethyl)-5-(Pentan-3-Ylcarbamoyl)-1 H-Pyrazol-3-Yl)Phenyl)Oxazole-5-Carboxamide]
23 | 220 | 77 |  | CCC(CC)NC(=O)c1cnc(-c2cccc(-c3cc(C(=O)NCc4c(F)cccc4F)n[nH]3)c2)o1 [Example 3.34, 2-(3-(3-((2,6-Difluorobenzyl)Carbamoyl)-1 H-Pyrazol-5-Yl)Phenyl)-N-(Pentan-3-Yl)Oxazole-5-Carboxamide]
